Experimental data from US6600091B1, “Enzymes responsible for the metabolism of zeatin” (The State of Oregon acting by and through the State Board …, priority 1998, dated 2003).

Tests used:
[1] = biological target: T1, Recombinant Protein Encoded by the ORF of Zeatin O-xylosyltranferase (Phaseolus vulgaris, UniProt P56725); experiment: Cytokinin conversion assay with recombinant protein encoded by the ORF of zeatin O-xylosyltransferase (radio-labeled cytokinin + glycosyl donor, HPLC); assay type: biochemical, Phaseolous vulgaris; conditions: for Substrate Left (%) / Substrate Left CPM / Product (%) / Product CPM: 125 μl protein from culture supernatant, 4 hrs
T1 construct: the ORF of the gene was excised from the pGem-T vector (Promega) using the restriction enzymes Not1 and Sal1; made in house; host or cells: E. coli BL21(DE3) pLysS
T1 sequence (P56725 1-454): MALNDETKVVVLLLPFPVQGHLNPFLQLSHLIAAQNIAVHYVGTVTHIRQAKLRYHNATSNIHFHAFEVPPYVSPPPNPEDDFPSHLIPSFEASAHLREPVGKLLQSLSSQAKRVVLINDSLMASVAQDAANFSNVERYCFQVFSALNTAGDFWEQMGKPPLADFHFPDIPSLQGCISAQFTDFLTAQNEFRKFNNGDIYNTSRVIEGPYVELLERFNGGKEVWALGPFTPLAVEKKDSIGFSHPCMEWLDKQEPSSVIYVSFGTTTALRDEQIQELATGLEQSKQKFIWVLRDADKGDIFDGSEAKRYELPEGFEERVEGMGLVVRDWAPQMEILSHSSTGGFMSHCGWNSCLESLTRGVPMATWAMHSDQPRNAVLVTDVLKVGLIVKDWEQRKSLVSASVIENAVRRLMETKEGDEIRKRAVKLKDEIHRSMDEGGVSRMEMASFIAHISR
Source text: Isolation of recombinant zeatin O-xylosyltransferase proteins. Zeatin O-xylosyltransferase protein was purified using the same techniques as described above. Briefly, the coding sequences were ligated into an IPTG inducible plasmid which was transformed into Epicurian Coli BL21(DE3) pLysS Competent cells (Stratagene, LaJolla, Calif.). IPTG was then used to induce protein. Cells were subsequently lysed and the protein was separated out through the use of ion exchange chromatography.
(§1) Assay for cytokinin conversion activity and analysis of reaction products. […] Briefly, ^14C-labeled cytokinins (specific activity of 24 mCi/mmol), glycosyl donor (3 mM of UDPG or UDPX), MgCl2 (0.05M) and ATP (0.5 mM) in 1 mM Tris, pH 8.0 were incubated with a specified amount of the recombinant protein at 27° C. […] The supernatant was concentrated to 100 μl in vacuo (Speed Vac Concentrator, Savant) and analyzed by HPLC using a reversed phase C18column.
(§2) The aqueous buffer consisted of 0.2M acetic acid adjusted to pH 3.5 with TEA. Samples were eluted with a linear gradient of methanol (5-50% over 90 minutes) in TEA buffer. The flow rate was 1 mL/min. and 0.5 mL fractions were collected. […] Radioactivity in these fractions was determined in Ready-Gel scintillation fluid (Beckman) with a Beckman LS 7000 scintillation counter.
Isolation and authentication of zeatin O-xylosyltransferase cDNA clones. To assess the enzyme activity of the protein encoded by zeatin O-xylosyltransferase, the ORF of the gene was excised from the pGem-T vector (Promega) using the restriction enzymes Not1 and Sal1. The resulting fragment was then ligated into the Not1/Sal1 site of the pZipLox plasmid.

[2] = biological target: T2, Recombinant Zeatin O-glucosyltransferase (Phaseolus lunatus, UniProt Q9ZSK5); experiment: Cytokinin conversion assay with recombinant zeatin O-glucosyltransferase (14C-cytokinin + glycosyl donor, products separated by HPLC); assay type: biochemical, Phaseolous lunatus
T2 construct: the polypeptide encoded by the ORF plus the 5′ untranslated region and the α-peptide from the cloning vector; alpha-peptide encoded by the cloning vector (33 amino acids, pZL1/ZipLox); made in house; host or cells: E. coli BL21(DE3) pLysS
T2 sequence (Q9ZSK5 1-459): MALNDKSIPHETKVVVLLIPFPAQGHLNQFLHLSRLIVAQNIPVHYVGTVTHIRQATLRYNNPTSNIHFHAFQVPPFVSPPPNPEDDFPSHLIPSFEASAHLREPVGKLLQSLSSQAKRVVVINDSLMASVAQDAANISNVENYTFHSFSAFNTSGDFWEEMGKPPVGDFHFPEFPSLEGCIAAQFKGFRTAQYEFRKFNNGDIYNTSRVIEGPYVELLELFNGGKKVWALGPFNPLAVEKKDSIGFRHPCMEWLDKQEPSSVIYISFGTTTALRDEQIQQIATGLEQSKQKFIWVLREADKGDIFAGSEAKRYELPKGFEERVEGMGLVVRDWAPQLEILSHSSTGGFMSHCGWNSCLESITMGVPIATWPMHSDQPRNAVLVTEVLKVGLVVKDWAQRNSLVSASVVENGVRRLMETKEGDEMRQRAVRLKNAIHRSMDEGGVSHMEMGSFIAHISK
Protocol: Isolation of recombinant zeatin O-glucosyltransferase proteins. To obtain recombinant proteins, purified plasmids were transformed into Epicurian Coli BL21(DE3) pLysS Competent cells (Stratagene, LaJolla, Calif.) following the recommended protocol. Colonies were selected on AMP-LB plates. An individual colony was grown overnight in SOC-AMP media and 0.5 ml of the culture was used to inoculate 50 mls of SOC-AMP media. […] After 4 hours cells were collected and frozen at −80° C. overnight. Cells were lysed the next day by thawing and resuspending in 0.5 ml of 0.2 M Tris pH 7.5 containing 1 mg/ml of lysozyme. DNAase (1 μg/10 μl sample) was added after a 10-min. cycle of freeze-thaw at −80° C. Soluble proteins were collected after centrifugation. Recombinant proteins were further purified on a DEAE anion exchange column using the Bio-Rad Biologic liquid chromatography system.
as §1, §2

[3] = glycosyl donor UDPG, A: 200 μl supernatant from lysed cells, approx. 1 nmole 14C-labeled zeatin, 2 hr
[4] = glycosyl donor UDPG, B: DEAE-purified proteins (4 μg), approx. 0.5 nmole 14C-cytokinin
[5] = glycosyl donor UDPX, A: 200 μl supernatant from lysed cells, approx. 1 nmole 14C-labeled zeatin, 2 hr

C/C(=C/CNc1ncnc2nc[nH]c12)CO [cis-Z, Cis-zeatin]
Substrate Left (%) ([1]; glycosyl donor UDPX): 100%
Substrate Left CPM ([1]; glycosyl donor UDPX): 29460 CPM

C/C(=C\CNc1ncnc2[nH]cnc12)CO [Z, trans-zeatin]
Product (%) [2, 3]: 100%
Product CPM [2, 3]: 39715 CPM
Substrate Left (%) [2, 3]: 0 (0%)
Substrate Left CPM [2, 3]: 0 (0%) CPM
Product (%) [2, 4]: 14%
Product CPM [2, 4]: 3731 CPM
Substrate Left (%) [2, 4]: 86%
Substrate Left CPM [2, 4]: 23115 CPM
Conversion to O-glucosylzeatin (in words) ([2]; glycosyl donor UDPG, supernatant with recombinant protein, listed as 14C-zeatin): efficiently converted
Product (%) [2, 5]: 18%
Product CPM [2, 5]: 4956 CPM
Substrate Left (%) [2, 5]: 82%
Substrate Left CPM [2, 5]: 23078 CPM
Conversion of zeatin (in words) ([1]; UDPG as the sugar donor): no detectable conversion
Substrate Left (%) ([1]; glycosyl donor UDPG): 100%
Substrate Left CPM ([1]; glycosyl donor UDPG): 41679 CPM
Product (%) ([1]; glycosyl donor UDPX): 82%
Product CPM ([1]; glycosyl donor UDPX): 35838 CPM
Substrate Left (%) ([1]; glycosyl donor UDPX): 18%
Substrate Left CPM ([1]; glycosyl donor UDPX): 7768 CPM

CC(CO)CCNc1ncnc2nc[nH]c12 (stereo not drawn) [DHZ, dihydrozeatin]
Formation of O-glucosyldihydrozeatin (in words) ([2]; DEAE-column purified recombinant protein): trace
Product (%) [2, 4]: 1%
Product CPM [2, 4]: 329 CPM
Substrate Left (%) [2, 4]: 99%
Substrate Left CPM [2, 4]: 24178 CPM
Product (%) ([1]; glycosyl donor UDPX): 78%
Product CPM ([1]; glycosyl donor UDPX): 33237 CPM
Substrate Left (%) ([1]; glycosyl donor UDPX): 22%
Substrate Left CPM ([1]; glycosyl donor UDPX): 9244 CPM

C/C(=C\CNc1ncnc2c1ncn2[C@@H]1O[C@H](CO)[C@@H](O)[C@H]1O)CO [RZ, ribosylzeatin]
Substrate Left (%) ([1]; glycosyl donor UDPX): 100%
Substrate Left CPM ([1]; glycosyl donor UDPX): 39238 CPM
